Source: patent publication EP0114128A1, “3-Amino-2-oxo-azetidine derivatives containing in position 1 a nitrogen heterocyclic radical, process for their preparation, their use as therapeutical agents and intermediates for their preparation” (priority 1983, dated 1984)
≈ marks a conversion by molar mass, not a printed value. Like-named read-outs stand apart in the source and are kept apart here.

Key:
Test in all cases: In vitro activity, dilution method in liquid medium (MIC)
Assay type in all cases: cell-based
[1] = test system: Enterobacter cloacae 1321 E; conditions: read-out: concentrations minimales inhibitrices (C. M. I.)
Experimental: (§1) Etude pharmacologiaue des produits de l'invention. Activité in vitro, méthode des dilutions en milieu liquide.
(§2) On prépare une série de tubes dans lesquels on répartit une même quantité de milieu nutritif stérile. On distribue dans chaque tube des quantités croissantes du produit à étudier, puis chaque tube est ensemencé avec une souche bactérienne. Après incubation de vingt-quatre ou quarante-huit heures à l'étuve à 37°C, l'inhibition de la croissance est appréciée par transillumination ce qui permet de déterminer les concentrations minimales inhibitrices (C. M. I.) exprimées en µg/cm3.

Escherichia Coli 078 = conditions: read-out: concentrations minimales inhibitrices (C. M. I.)
Experimental: as §1, §2

Escherichia Coli 1507 E = conditions: COLI1507E, read-out: concentrations minimales inhibitrices (C. M. I.)
Experimental: as §1, §2

Escherichia Coli 1894 = conditions: read-out: concentrations minimales inhibitrices (C. M. I.)
Experimental: as §1, §2

Escherichia Coli DC0 = conditions: read-out: concentrations minimales inhibitrices (C. M. I.)
Experimental: as §1, §2

Escherichia Coli DC2 = conditions: read-out: concentrations minimales inhibitrices (C. M. I.)
Experimental: as §1, §2

Escherichia Coli TEM = conditions: read-out: concentrations minimales inhibitrices (C. M. I.)
Experimental: as §1, §2

[2] = test system: Klebsiella Aeruginosa 1522 E; conditions: read-out: concentrations minimales inhibitrices (C. M. I.)
Experimental: as §1, §2

[3] = test system: Klebsiella pneumonae 52145; conditions: read-out: concentrations minimales inhibitrices (C. M. I.)
Experimental: as §1, §2

Proteus mirabilis A 235 = conditions: read-out: concentrations minimales inhibitrices (C. M. I.)
Experimental: as §1, §2

Proteus vulgaris A 232 = conditions: read-out: concentrations minimales inhibitrices (C. M. I.)
Experimental: as §1, §2

Providencia DU 48 = conditions: read-out: concentrations minimales inhibitrices (C. M. I.)
Experimental: as §1, §2

[4] = test system: Pseudomonas aeruginosa 1771 m; conditions: read-out: concentrations minimales inhibitrices (C. M. I.)
Experimental: as §1, §2

[5] = test system: Salmonella typhimurium MZ 11; conditions: Salmonella enterica, read-out: concentrations minimales inhibitrices (C. M. I.)
Experimental: as §1, §2

Serratia marcesceus 2532 = conditions: read-out: concentrations minimales inhibitrices (C. M. I.)
Experimental: as §1, §2

[6] = COLI078, 24 H incubation at 37°C
[7] = COLI078, 48 H incubation at 37°C
[8] = COLI1894, 24 H incubation at 37°C
[9] = COLI1894, 48 H incubation at 37°C
[10] = COLIDC0, 24 H incubation at 37°C
[11] = COLIDC0, 48 H incubation at 37°C
[12] = COLIDC2, 24 H incubation at 37°C
[13] = COLIDC2, 48 H incubation at 37°C

Compound | MIC ([1]; 24 H incubation at 37°C) [µg/mL] | MIC ([1]; 48 H incubation at 37°C) [µg/mL] | MIC (Escherichia Coli 078; [6]) [µg/mL] | MIC (Escherichia Coli 078; [7]) [µg/mL] | MIC (Escherichia Coli 1507 E; 24 H incubation at 37°C) [µg/mL] | MIC (Escherichia Coli 1507 E; 48 H incubation at 37°C) [µg/mL] | MIC (Escherichia Coli 1894; [8]) [µg/mL] | MIC (Escherichia Coli 1894; [9]) [µg/mL] | MIC (Escherichia Coli DC0; [10]) [µg/mL] | MIC (Escherichia Coli DC0; [11]) [µg/mL] | MIC (Escherichia Coli DC2; [12]) [µg/mL] | MIC (Escherichia Coli DC2; [13]) [µg/mL] | MIC (Escherichia Coli TEM; 24 h) [µg/mL] | MIC (Escherichia Coli TEM; 48 h) [µg/mL] | MIC ([2]; 24 H incubation at 37°C) [µg/mL] | MIC ([2]; 48 H incubation at 37°C) [µg/mL] | MIC ([3]; 24 H incubation at 37°C) [µg/mL] | MIC ([3]; 48 H incubation at 37°C) [µg/mL] | MIC (Proteus mirabilis A 235; A235, 24 H incubation at 37°C) [µg/mL] | MIC (Proteus mirabilis A 235; A235, 48 H incubation at 37°C) [µg/mL] | further results
C[C@@H]1[C@H](NC(=O)/C(=N\OC(C)(C)C(=O)O)c2csc(N)n2)C(=O)N1c1nn[nH]n1 (racemic) [Prod. ex.7, (3SR, 4RS) 3-//2-(-2-aminothiazol-4-yl) 2-/(1-carboxy 1-méthyléthoxy) imino/ acétyl/ aminol/4-méthyl 1-(tétrazol-5-yl) 2-azétidinone isomère syn] | 2.5 (≈ 5.9 µM) | 2.5 (≈ 5.9 µM) | 0.3 (≈ 0.709 µM) | 0.6 (≈ 1.42 µM) | 1.2 (≈ 2.83 µM) | 1.2 (≈ 2.83 µM) | 0.6 (≈ 1.42 µM) | 0.6 (≈ 1.42 µM) | 0.6 (≈ 1.42 µM) | 1.2 (≈ 2.83 µM) | 0.6 (≈ 1.42 µM) | 0.6 (≈ 1.42 µM) | 1.2 (≈ 2.83 µM) | 1.2 (≈ 2.83 µM) | 1.2 (≈ 2.83 µM) | 1.2 (≈ 2.83 µM) | 2.5 (≈ 5.9 µM) | 2.5 (≈ 5.9 µM) | 0.15 (≈ 0.354 µM) | 0.15 (≈ 0.354 µM) | MIC (Proteus vulgaris A 232; A232, 24 H incubation at 37°C): 0.08 µg/mL (≈ 0.189 µM); MIC (Proteus vulgaris A 232; A232, 48 H incubation at 37°C): 0.08 µg/mL (≈ 0.189 µM); MIC (Providencia DU 48; DU48, 24 H incubation at 37°C): 0.6 µg/mL (≈ 1.42 µM); MIC (Providencia DU 48; DU48, 48 H incubation at 37°C): 0.6 µg/mL (≈ 1.42 µM); MIC ([4]; 24 H incubation at 37°C): 0.6 µg/mL (≈ 1.42 µM); MIC ([4]; 48 H incubation at 37°C): 0.6 µg/mL (≈ 1.42 µM); MIC ([5]; 24 H incubation at 37°C): 0.6 µg/mL (≈ 1.42 µM); MIC ([5]; 48 H incubation at 37°C): 0.6 µg/mL (≈ 1.42 µM); MIC (Serratia marcesceus 2532; 24 H incubation at 37°C): 1.2 µg/mL (≈ 2.83 µM); MIC (Serratia marcesceus 2532; 48 H incubation at 37°C): 1.2 µg/mL (≈ 2.83 µM)
C[C@@H]1[C@H](NC(=O)/C(=N\OC(F)F)c2csc(N)n2)C(=O)N1c1nn[nH]n1 (racemic) [Prod. ex. 4] | 1.2 (≈ 3.1 µM) | 1.2 (≈ 3.1 µM) | 0.3 (≈ 0.775 µM) | 0.3 (≈ 0.775 µM) | 0.15 (≈ 0.387 µM) | 0.15 (≈ 0.387 µM) | ≤ 0.04 | ≤ 0.04 | 1.2 (≈ 3.1 µM) | 1.2 (≈ 3.1 µM) | ≤ 0.04 | ≤ 0.04 | 0.6 (≈ 1.55 µM) | 1.2 (≈ 3.1 µM) | 1.2 (≈ 3.1 µM) | 1.2 (≈ 3.1 µM) | 5 (≈ 12.9 µM) | 5 (≈ 12.9 µM) | 0.3 (≈ 0.775 µM) | 0.3 (≈ 0.775 µM) | MIC (Proteus vulgaris A 232; A232, 24 H incubation at 37°C): 0.3 µg/mL (≈ 0.775 µM); MIC (Proteus vulgaris A 232; A232, 48 H incubation at 37°C): 0.3 µg/mL (≈ 0.775 µM); MIC (Providencia DU 48; DU48, 24 H incubation at 37°C): 2.5 µg/mL (≈ 6.45 µM); MIC (Providencia DU 48; DU48, 48 H incubation at 37°C): 2.5 µg/mL (≈ 6.45 µM); MIC ([5]; 24 H incubation at 37°C): 1.2 µg/mL (≈ 3.1 µM); MIC ([5]; 48 H incubation at 37°C): 1.2 µg/mL (≈ 3.1 µM); MIC (Serratia marcesceus 2532; 24 H incubation at 37°C): 20 µg/mL (≈ 51.6 µM); MIC (Serratia marcesceus 2532; 48 H incubation at 37°C): 20 µg/mL (≈ 51.6 µM)
CO/N=C(\C(=O)N[C@@H]1C(=O)N(c2nn[nH]n2)[C@@H]1C)c1csc(N)n1 (racemic) [Prod. ex. 1, (3SR. 4RS) 3-//2-(2-aminothiazol-4-yl) 2-méthoxyimino acétyl/ amino/-4-méthyl 1-(1H-tétrazol-5-yl)-2-azétidinone isomère syn] | 0.6 (≈ 1.71 µM) | 0.6 (≈ 1.71 µM) | 0.3 (≈ 0.854 µM) | 0.3 (≈ 0.854 µM) | 0.3 (≈ 0.854 µM) | 0.3 (≈ 0.854 µM) | 0.08 (≈ 0.228 µM) | 0.08 (≈ 0.228 µM) | 1.2 (≈ 3.42 µM) | 1.2 (≈ 3.42 µM) | 0.6 (≈ 1.71 µM) | 0.6 (≈ 1.71 µM) | 0.6 (≈ 1.71 µM) | 1.2 (≈ 3.42 µM) | 1.2 (≈ 3.42 µM) | 1.2 (≈ 3.42 µM) | 1.2 (≈ 3.42 µM) | 2.5 (≈ 7.12 µM) | 0.15 (≈ 0.427 µM) | 0.15 (≈ 0.427 µM) | MIC (Proteus vulgaris A 232; A232, 24 H incubation at 37°C): 0.3 µg/mL (≈ 0.854 µM); MIC (Proteus vulgaris A 232; A232, 48 H incubation at 37°C): 0.3 µg/mL (≈ 0.854 µM); MIC (Providencia DU 48; DU48, 24 H incubation at 37°C): 0.6 µg/mL (≈ 1.71 µM); MIC (Providencia DU 48; DU48, 48 H incubation at 37°C): 0.6 µg/mL (≈ 1.71 µM); MIC ([4]; 24 H incubation at 37°C): ≤ 5 µg/mL; MIC ([4]; 48 H incubation at 37°C): ≤ 5 µg/mL; MIC ([5]; 24 H incubation at 37°C): 1.2 µg/mL (≈ 3.42 µM); MIC ([5]; 48 H incubation at 37°C): 1.2 µg/mL (≈ 3.42 µM); MIC (Serratia marcesceus 2532; 24 H incubation at 37°C): 20 µg/mL (≈ 56.9 µM); MIC (Serratia marcesceus 2532; 48 H incubation at 37°C): 20 µg/mL (≈ 56.9 µM)
